In test [1] the test system is bacteria. Particulars: cited from earlier work.
In test [2] the test system is Enterobacter cloacae P99-. Put plainly: MIC by agar dilution, Enterobacter cloacae P99-. It counts as cell-based. On the technique in general: Agar dilution tests growth on a series of plates holding different concentrations.
Text: (§1) The antibacterial activity is described in terms of the minimum inhibitory concentration (MIC) determined by the agar-dilution technique with an inoculum size of 10^4 CFU/spot.
For test [3], the system named is S. aureus Oxford. Description: MIC by agar dilution, S. aureus Oxford. Particulars: Staphylococcus aureus, Diagnostic Sensitivity Test, inoculum 10^4 CFU/spot. In kind it is cell-based.
Text: as §1
In test [4] the test system is P. morganii I + 001. Description: MIC by agar dilution, P. morganii I + 001. In kind it is cell-based. As to conditions: Morganella morganii, Diagnostic Sensitivity Test, inoculum 10^4 CFU/spot.
Text: as §1
Test [5] concerns E. coli DCO. Description: MIC by agar dilution, E. coli DCO. As to conditions: Escherichia coli, Diagnostic Sensitivity Test, inoculum 10^4 CFU/spot. It counts as cell-based.
Text: as §1
Test [6] has as its system B. fragilis AMP S. Put plainly: MIC by agar dilution, B. fragilis AMP S. It counts as cell-based. As to conditions: Bacteroides fragilis, Diagnostic Sensitivity Test, inoculum 10^4 CFU/spot.
Text: as §1

Structures are written as SMILES. Converted amounts (≈) assume the structure as drawn.

Take `C[C@@H](O)[C@H]1C(=O)N2C(C(=O)O)=C(SCCN=CN)C[C@H]12` [imipenem, N-formimidoyl thienamycin]: in test [1], the antibacterial activity entry was “broad spectrum of antibacterial activity”.

By MIC is commonly meant the lowest concentration found to suppress growth. On to `C[C@@H](O)[C@H]1C(=O)N2C(C(=O)O)=C(S[C@@H]3CN[C@H](C(=O)Nc4ccc(C(=O)O)cn4)C3)[C@H](C)[C@H]12` [Example 4, (1R,5R,6S,8S,2'S,4'S)-2-(2-(5-Carboxy-2-pyridylcarbamoyl)pyrrolidin-4-ylthio)-6-(1-hydroxyethyl)-1-methylcarbapenem-3-carboxylic acid], for which the MIC in test [2] came to 0.02 µg/mL (≈ 0.042 µM); in test [3], 0.13 µg/mL (≈ 0.273 µM); in test [4] it was 0.02 µg/mL; in test [5], 0.02 µg/mL (≈ 0.042 µM); in test [6], 0.25 µg/mL (≈ 0.525 µM).
